Assay results from BindingDB's records for doi:10.1124/jpet.104.066787 (Georgetown University, 2004).
Values joined by “and” are separate entries in the source; they are usually repeats but may differ in a detail not shown here. Identical values can stand only once.

Experiments:
[1] = target: Neuronal acetylcholine receptor subunit alpha-2 (Rattus norvegicus, UniProt P12389)
[2] = target: Neuronal acetylcholine receptor subunit alpha-3 (Rattus norvegicus, UniProt P04757)
[3] = target: Neuronal acetylcholine receptor subunit alpha-4 (Rattus norvegicus, UniProt P09483)
[4] = target: Nicotinic acetylcholine receptor (Rattus norvegicus)

Chain of Neuronal acetylcholine receptor subunit alpha-3 (P04757 whole entry): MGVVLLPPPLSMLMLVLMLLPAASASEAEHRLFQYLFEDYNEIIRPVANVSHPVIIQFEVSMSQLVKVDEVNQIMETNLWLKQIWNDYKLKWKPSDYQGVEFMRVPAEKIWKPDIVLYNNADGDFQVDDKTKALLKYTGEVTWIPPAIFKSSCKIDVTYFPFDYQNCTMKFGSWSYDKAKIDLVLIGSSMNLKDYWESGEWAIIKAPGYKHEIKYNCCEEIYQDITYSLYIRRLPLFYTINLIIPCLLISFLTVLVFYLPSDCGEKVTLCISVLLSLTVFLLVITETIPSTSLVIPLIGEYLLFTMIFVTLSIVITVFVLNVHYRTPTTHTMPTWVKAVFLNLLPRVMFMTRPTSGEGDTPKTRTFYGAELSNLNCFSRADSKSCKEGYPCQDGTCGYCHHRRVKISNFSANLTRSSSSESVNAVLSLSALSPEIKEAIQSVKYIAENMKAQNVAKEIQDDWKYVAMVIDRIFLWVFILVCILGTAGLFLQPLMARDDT
Chain of Neuronal acetylcholine receptor subunit alpha-4 (P09483 whole entry): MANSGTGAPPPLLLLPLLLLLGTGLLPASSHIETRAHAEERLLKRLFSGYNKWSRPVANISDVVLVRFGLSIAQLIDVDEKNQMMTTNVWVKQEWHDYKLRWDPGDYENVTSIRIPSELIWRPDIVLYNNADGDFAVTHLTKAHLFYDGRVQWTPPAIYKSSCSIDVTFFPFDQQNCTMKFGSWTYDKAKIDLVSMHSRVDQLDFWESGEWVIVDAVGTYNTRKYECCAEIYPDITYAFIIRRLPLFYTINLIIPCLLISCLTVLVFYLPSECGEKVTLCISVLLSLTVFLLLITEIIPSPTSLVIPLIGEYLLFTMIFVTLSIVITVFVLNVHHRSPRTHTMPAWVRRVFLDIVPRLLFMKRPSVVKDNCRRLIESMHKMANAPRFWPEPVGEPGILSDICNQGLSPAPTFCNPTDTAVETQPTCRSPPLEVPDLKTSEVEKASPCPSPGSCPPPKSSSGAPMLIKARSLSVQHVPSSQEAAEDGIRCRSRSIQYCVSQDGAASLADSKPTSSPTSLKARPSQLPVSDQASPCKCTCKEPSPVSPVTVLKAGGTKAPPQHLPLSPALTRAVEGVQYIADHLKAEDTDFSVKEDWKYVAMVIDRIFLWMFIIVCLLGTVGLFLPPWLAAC
Chain of Neuronal acetylcholine receptor subunit alpha-2 (P12389 whole entry): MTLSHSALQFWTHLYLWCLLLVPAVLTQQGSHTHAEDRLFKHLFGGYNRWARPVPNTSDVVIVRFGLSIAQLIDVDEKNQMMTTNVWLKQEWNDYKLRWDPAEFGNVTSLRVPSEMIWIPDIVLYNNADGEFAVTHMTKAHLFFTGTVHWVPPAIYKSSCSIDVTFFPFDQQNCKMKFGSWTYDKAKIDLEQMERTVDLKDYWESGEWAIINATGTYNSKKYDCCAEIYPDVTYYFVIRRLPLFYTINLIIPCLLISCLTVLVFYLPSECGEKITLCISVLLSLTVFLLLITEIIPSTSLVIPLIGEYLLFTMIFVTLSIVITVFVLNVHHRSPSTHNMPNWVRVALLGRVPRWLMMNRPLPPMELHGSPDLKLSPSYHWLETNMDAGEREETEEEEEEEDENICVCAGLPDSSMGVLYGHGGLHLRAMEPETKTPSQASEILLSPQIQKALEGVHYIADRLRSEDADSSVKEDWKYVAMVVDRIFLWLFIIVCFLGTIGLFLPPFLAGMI

| Structure (SMILES) | Ki [1] | Ki [2] | Ki [3] | Ki [4] [nM] |
| --- | --- | --- | --- | --- |
| CO[C@H]1CC=C2CCN3CCC4=C(CC(=O)OC4)[C@]23C1 | 6200 nM and > 10000 nM | 3800 nM and > 10000 nM |  |  |
| CC(=O)OCC[N+](C)(C)C [2-acetoxyethyl(trimethyl)ammonium;perchlorate] | 11 nM |  |  |  |
| C[N+](C)(C)CCO [2-hydroxy-N,N,N-trimethylethanaminium] | > 10000 nM | > 10000 nM | > 10000 nM |  |
| C[N+](C)(C)CCOC(N)=O [(2-Hydroxyethyl)trimethyl ammonium chloride carbamate] | 260 nM and 930 nM | 1100 nM and 4700 nM | 590 nM and 1100 nM |  |
| c1cncc(OCC2CCN2)c1 (stereo unspecified) [A-85380] | 18 nM |  |  |  |
| O=c1cccc2n1CC1CNCC2C1 (stereo unspecified) [CAS_485-35-8] | 1.1 nM and 5.4 nM | 37 nM and 220 nM | 1.5 nM and 2.1 nM |  |
| CCN1CC2(COC(=O)c3ccccc3-n3c(O)cc(C)c3O)CCC(OC)C34C5CC6C(OC)CC(O)(C5C6OC)C(O)(C(OC)C23)C14 (stereo unspecified) [CAS_21019-30-7] | > 10000 nM |  | > 10000 nM and 6400 nM |  |
| Ic1ccc(C2CC3CCC2N3)cn1 (stereo unspecified) [IPH] | 0.11 nM and 0.15 nM | 0.18 nM and 0.98 nM | 0.15 nM | 0.33 |
| CNC1(C)C2CCC(C2)C1(C)C (stereo unspecified) [Methyl-(2,3,3-trimethyl-bicyclo[2.2.1]hept-2-yl)-amine(Mecamylamine)] | > 10000 nM |  | > 10000 nM |  |
